Source: patent publication US20170128389A1, “Paediatric Compositions For Treating Multiple Sclerosis” (Novartis AG, priority 2008, published 2017)

How the values were obtained:
[1] = tested on: patients with relapsing multiple sclerosis (MS); experiment: long-term extension of the study (up to 36 months, FTY720 once-daily)
Description: All patients who subsequently opted to enter a long-term extension of the study received FTY720 once-daily for up to 38 months.

[2] = tested on: lymphocyte counts / tolerability in adolescents; experiment: open-label, single-dose 28-day pharmacokinetic and safety/tolerability study in pediatric patients; format: in vivo, human
Description: An open-label, single-dose 28-day pharmacokinetic and safety/tolerability study of FTY720 in pediatric is performed (8 patients aged 11-17 years, 5 patients aged 8-10 years and 5 patients aged 1-5 years). The contents of 0.5 mg capsules is dispersed in water and administered as an oral solution at a dose of 0.07 mg/kg to a maximum dose of 5 mg. The dose is administered by study personnel either directly from the glass mixing vial or with an oral syringe followed by drinking 2 water-rinse cycles of the vial or syringe and an additional 50-200 mL of water.
Blood samples are collected for 28 days postdose and analyzed for fingolimod and fingolimod-phosphate blood concentrations by validated liquid chromatography methods with tandem mass spectrometry. Standard noncompartmental pharmacokinetic parameters are derived. Absolute lymphocyte counts are measured over 28 days to characterize the effect of FTY720 on lymphocyte decrease and recovery. Heart rate is recorded frequently for 24 hours postdose.
Safety and tolerability assessments includes information on adverse events, body height and weight, supine systolic and diastolic blood pressure and radial pulse rate; standard 12-lead electrocardiograms (ECGs) interpreted at eResearchTechnology, Inc (Philadelphia, Pa., USA); standard hematology, biochemistry, and urinalysis parameters; screens for Hepatitis B surface antigen (HBsAg), Hepatitis C antibodies, and HIV; and pregnancy tests.

[3] = tested on: patients with relapsing multiple sclerosis (MS); experiment: Hamburg Quality of Life Questionnaire in MS (HAQUAMS) scores, core 6-month study and extension; format: in vivo, human
Description: Hamburg Quality of Life Questionnaire in MS (HAQUAMS) scores were recorded at baseline, month 3 (M3), and M6 during a core 6-month study, and M12 and M24 during an extension of the core study. The HAQUAMS consists of 38 items, 28 of which contribute to five sub-domains. Domain scores range from 1 to 5, with lower scores indicating improved HRQL. A total score was generated by averaging the five sub-domain scores.

[4] = tested on: patients with moderate asthma; experiment: randomized, double-blind, placebo-controlled ascending multiple oral dose study in patients with moderate asthma; format: in vivo, human; conditions: 0.5, 1.25 or 2.5 mg, 10 days
Description: A randomized, double-blind, placebo-controlled, parallel, time-lagged, ascending, multiple oral dose study, is performed in patients with moderate asthma: 36 patients in 3 cohorts (12 patients per cohort). In each cohort, patients are randomized between the FTY720 group (9 patients) and placebo (3 patients)
Cohort 1: FTY720 0.5 mg or placebo
Cohort 2: FTY720 1.25 mg or placebo
Cohort 3: FTY720 2.5 mg or placebo
Duration of treatment: 10 days.
Patients continue to take their standard daily dose of long-acting β2 agonist and inhaled corticosteroid throughout the study uninterrupted.
Pulmonary function test (FEV1, FEF25-75): is performed at 12-hour profile on Day 1 (pre-dose, 1, 2, 3, 4, 5, 6, and 12 hr post dose), 6-hour profile at baseline (Day −1) and on Day 10. An additional PFT is done 6 hours post dose on Days 2, 3, and 7.

[5] = tested on: patients with relapsing multiple sclerosis (MS); experiment: 6-month, placebo-controlled trial of oral FTY720 in 281 patients with relapsing MS; format: in vivo, human; conditions: oral 1.25 or 5.0 mg once-daily, 6 months
[6] = after 36 months of continuous treatment

Compound: CCCCCCCCc1ccc(CCC(N)(CO)CO)cc1 [FTY720, 2-amino-2-[2-(4-octylphenyl)ethyl]propane-1,3-diol]
- safety profile ([1]; 1.25 mg dose): good safety profile
- clinical and MRI activity ([1]; after 3 years of follow-up, continuous oral 1.25 mg or 5.0 mg dose): persistent inhibition of clinical and MRI activity
- ARR [1, 6]: 0.20-0.21
- patients remained relapse-free [1, 6]: 68-73%
- patients free from 6-month sustained disability progression ([1]; month 36): 76-80%
- patients free from Gd+ lesions ([1]; month 36, each group): 88-89%
- patients free from new T2 lesions ([1]; month 36, each group): 70-78%
- discontinuation rate ([1]; months 12-24 of extension): 17.2%
- diarrhea reported ([1]; months 24-36): 2.7%
- dyspnea reported ([1]; months 24-36): 1.1%
- nausea reported ([1]; months 24-36): 2.1%
- discontinuation rate ([1]; months 24-36 of extension): 6.0%
- lymphocyte count nadir ([2]; adolescents, single dose): 0.37±0.17 ×10^9/L
- time of lymphocyte nadir (median) ([2]; adolescents, single dose): 2 days postdose
- decrease of mean lymphocyte counts from predose ([2]; adolescents, single dose, predose count 2.64±1.04×10^9/L): 85%
- lymphocyte count recovery ([2]; by end-of-study visit on day 28): back to baseline
- tolerability ([2]; single dose 0.07 mg/kg oral solution, adolescents): well tolerated
- HAQUAMS mean total score ([3]; M6, oral 1.25 mg): 1.9
- HAQUAMS total score, mean change from baseline ([3]; M6, oral 1.25 mg): −0.02
- HAQUAMS mean total score ([3]; M6, oral 5 mg): 1.9
- HAQUAMS total score, mean change from baseline ([3]; M6, oral 5 mg): −0.01
- HAQUAMS fatigue/thinking domain, change ([3]; baseline to M6, oral 1.25 mg (placebo +0.14; p=0.030)): −0.05
- total HAQUAMS scores ([3]; through M24): Stable
- tolerability of treatment initiation [4]: well tolerated
- reduction of annualized relapse rate (ARR) versus placebo [5]: > 50%
- reduction of cumulative number of gadolinium-enhancing (Gd+) lesions versus placebo [5]: up to 80%
